Experimental data: PubChem BioAssay (NCI)
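Where inhibition never reached the appropriate level, the endpoint shown equals the highest concentration tested. Otherwise, values were interpolated linearly from a five-concentration, 48-hour dose response in 96-well plates. At the GI50, growth is halved. TGI: concentration producing complete growth inhibition.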

What was measured:
Assay in all cases: NCI anticancer screen, dose series, 48 h
786-0 renal = system: 786-0 renal
A498 renal = system: A498 renal
A549 NSCLC = system: A549 NSCLC
ACHN renal = system: ACHN renal
BT-549 breast = system: BT-549 breast
CAKI-1 renal = system: CAKI-1 renal
CCRF-CEM leukemia = system: CCRF-CEM leukemia
COLO 205 colon = system: COLO 205 colon
DU-145 prostate = system: DU-145 prostate
EKVX NSCLC = system: EKVX NSCLC
HCC-2998 colon = system: HCC-2998 colon
HCT-116 colon = system: HCT-116 colon
HCT-15 colon = system: HCT-15 colon
HL-60(TB) leukemia = system: HL-60(TB) leukemia
HOP-62 NSCLC = system: HOP-62 NSCLC
HOP-92 NSCLC = system: HOP-92 NSCLC
HS 578T breast = system: HS 578T breast
HT29 colon = system: HT29 colon
IGROV1 ovarian = system: IGROV1 ovarian
K-562 leukemia = system: K-562 leukemia
KM12 colon = system: KM12 colon
LOX IMVI melanoma = system: LOX IMVI melanoma
M14 melanoma = system: M14 melanoma
MALME-3M melanoma = system: MALME-3M melanoma
MCF7 breast = system: MCF7 breast
MDA-MB-231 breast = system: MDA-MB-231 breast
MDA-MB-435 = system: MDA-MB-435
MOLT-4 leukemia = system: MOLT-4 leukemia
NCI-H226 lung = system: NCI-H226 lung
NCI-H23 lung = system: NCI-H23 lung
NCI-H460 lung = system: NCI-H460 lung
NCI-H522 lung = system: NCI-H522 lung
NCI/ADR-RES ovarian = system: NCI/ADR-RES ovarian
OVCAR-3 ovarian = system: OVCAR-3 ovarian
OVCAR-4 ovarian = system: OVCAR-4 ovarian
OVCAR-5 ovarian = system: OVCAR-5 ovarian
OVCAR-8 ovarian = system: OVCAR-8 ovarian
PC-3 prostate = system: PC-3 prostate
RPMI-8226 leukemia = system: RPMI-8226 leukemia
RXF 393 renal = system: RXF 393 renal
SF-268 CNS = system: SF-268 CNS
SF-295 CNS = system: SF-295 CNS
SF-539 CNS = system: SF-539 CNS
SK-MEL-2 melanoma = system: SK-MEL-2 melanoma
SK-MEL-28 melanoma = system: SK-MEL-28 melanoma
SK-MEL-5 melanoma = system: SK-MEL-5 melanoma
SK-OV-3 ovarian = system: SK-OV-3 ovarian
SN12C renal = system: SN12C renal
SNB-19 CNS = system: SNB-19 CNS
SNB-75 CNS = system: SNB-75 CNS
SR leukemia = system: SR leukemia
SW-620 colon = system: SW-620 colon
T-47D breast = system: T-47D breast
TK-10 renal = system: TK-10 renal
U251 CNS = system: U251 CNS
UACC-257 melanoma = system: UACC-257 melanoma
UACC-62 melanoma = system: UACC-62 melanoma
UO-31 renal = system: UO-31 renal

Cc1ccc(C(=NN=C(N)N)c2ccc(C)cc2)cc1
GI50 (786-0 renal): 623 nM | TGI (786-0 renal): 2860 nM | GI50 (A498 renal): 395 nM | TGI (A498 renal): 2610 nM | GI50 (A549 NSCLC): 451 nM | TGI (A549 NSCLC): 7090 nM | GI50 (ACHN renal): 1100 nM | TGI (ACHN renal): 7400 nM | GI50 (BT-549 breast): 2210 nM | TGI (BT-549 breast): 8690 nM | GI50 (CAKI-1 renal): 608 nM | TGI (CAKI-1 renal): 5930 nM | GI50 (CCRF-CEM leukemia): 559 nM | TGI (CCRF-CEM leukemia): 12200 nM | GI50 (COLO 205 colon): 445 nM | TGI (COLO 205 colon): 1410 nM | GI50 (DU-145 prostate): 313 nM | TGI (DU-145 prostate): 1160 nM | GI50 (EKVX NSCLC): 700 nM | TGI (EKVX NSCLC): 16600 nM | GI50 (HCC-2998 colon): 683 nM | TGI (HCC-2998 colon): 1930 nM | GI50 (HCT-116 colon): 372 nM | TGI (HCT-116 colon): 4480 nM | GI50 (HCT-15 colon): 773 nM | TGI (HCT-15 colon): 8860 nM | GI50 (HL-60(TB) leukemia): 214 nM | TGI (HL-60(TB) leukemia): 685 nM | GI50 (HOP-62 NSCLC): 1210 nM | TGI (HOP-62 NSCLC): 12500 nM | GI50 (HOP-92 NSCLC): 990 nM | TGI (HOP-92 NSCLC): 5960 nM | GI50 (HS 578T breast): 424 nM | TGI (HS 578T breast): 3690 nM | GI50 (HT29 colon): 316 nM | TGI (HT29 colon): 1170 nM | GI50 (IGROV1 ovarian): 644 nM | TGI (IGROV1 ovarian): 7640 nM | GI50 (K-562 leukemia): 271 nM | TGI (K-562 leukemia): 1550 nM | GI50 (KM12 colon): 327 nM | TGI (KM12 colon): 1330 nM | GI50 (LOX IMVI melanoma): 587 nM | TGI (LOX IMVI melanoma): 3380 nM | GI50 (M14 melanoma): 415 nM | TGI (M14 melanoma): 2150 nM | GI50 (MALME-3M melanoma): 388 nM | TGI (MALME-3M melanoma): 1910 nM | GI50 (MCF7 breast): 396 nM | TGI (MCF7 breast): 8530 nM | GI50 (MDA-MB-231 breast): 926 nM | TGI (MDA-MB-231 breast): 4360 nM | GI50 (MDA-MB-435): 199 nM | TGI (MDA-MB-435): 471 nM | GI50 (MOLT-4 leukemia): 520 nM | TGI (MOLT-4 leukemia): 4450 nM | GI50 (NCI-H226 lung): 1690 nM | TGI (NCI-H226 lung): 10900 nM | GI50 (NCI-H23 lung): 980 nM | TGI (NCI-H23 lung): 8660 nM | GI50 (NCI-H460 lung): 359 nM | TGI (NCI-H460 lung): 1330 nM | GI50 (NCI-H522 lung): 335 nM | TGI (NCI-H522 lung): 1190 nM | GI50 (NCI/ADR-RES ovarian): 1850 nM | TGI (NCI/ADR-RES ovarian): 5590 nM | GI50 (OVCAR-3 ovarian): 240 nM | TGI (OVCAR-3 ovarian): 568 nM | GI50 (OVCAR-4 ovarian): 1700 nM | TGI (OVCAR-4 ovarian): 13800 nM | GI50 (OVCAR-5 ovarian): 1850 nM | TGI (OVCAR-5 ovarian): 13800 nM | GI50 (OVCAR-8 ovarian): 773 nM | TGI (OVCAR-8 ovarian): 3590 nM | GI50 (PC-3 prostate): 457 nM | TGI (PC-3 prostate): 10500 nM | GI50 (RPMI-8226 leukemia): 1070 nM | TGI (RPMI-8226 leukemia): 4870 nM | GI50 (RXF 393 renal): 509 nM | TGI (RXF 393 renal): 1730 nM | GI50 (SF-268 CNS): 636 nM | TGI (SF-268 CNS): 6570 nM | GI50 (SF-295 CNS): 284 nM | TGI (SF-295 CNS): 945 nM | GI50 (SF-539 CNS): 2100 nM | TGI (SF-539 CNS): 6990 nM | GI50 (SK-MEL-2 melanoma): 780 nM | TGI (SK-MEL-2 melanoma): 2940 nM | GI50 (SK-MEL-28 melanoma): 2200 nM | TGI (SK-MEL-28 melanoma): 6700 nM | GI50 (SK-MEL-5 melanoma): 427 nM | TGI (SK-MEL-5 melanoma): 1500 nM | GI50 (SK-OV-3 ovarian): 1160 nM | TGI (SK-OV-3 ovarian): 10200 nM | GI50 (SN12C renal): 1070 nM | TGI (SN12C renal): 11600 nM | GI50 (SNB-19 CNS): 2230 nM | TGI (SNB-19 CNS): 18400 nM | GI50 (SNB-75 CNS): 845 nM | TGI (SNB-75 CNS): 16700 nM | GI50 (SR leukemia): 235 nM | TGI (SR leukemia): 1690 nM | GI50 (SW-620 colon): 379 nM | TGI (SW-620 colon): 1660 nM | GI50 (T-47D breast): 869 nM | TGI (T-47D breast): 10900 nM | GI50 (TK-10 renal): 876 nM | TGI (TK-10 renal): 11400 nM | GI50 (U251 CNS): 399 nM | TGI (U251 CNS): 1830 nM | GI50 (UACC-257 melanoma): 498 nM | TGI (UACC-257 melanoma): 2070 nM | GI50 (UACC-62 melanoma): 902 nM | TGI (UACC-62 melanoma): 6040 nM | GI50 (UO-31 renal): 1730 nM | TGI (UO-31 renal): 9760 nM
